According to PubChem BioAssay (NCI):
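Exposure lasted 48 hours, with cells grown in 96-well plates and compounds tested at five concentrations. TGI marks complete inhibition of growth.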

How the values were obtained:
Assay in all cases: NCI anticancer screen, dose series, 48 h
IGROV1 ovarian = test system: IGROV1 ovarian
MDA-MB-231 breast = test system: MDA-MB-231 breast
LOX IMVI melanoma = test system: LOX IMVI melanoma
EKVX NSCLC = test system: EKVX NSCLC
SK-MEL-2 melanoma = test system: SK-MEL-2 melanoma
HT29 colon = test system: HT29 colon
NCI-H226 lung = test system: NCI-H226 lung
MOLT-4 leukemia = test system: MOLT-4 leukemia
M14 melanoma = test system: M14 melanoma
OVCAR-8 ovarian = test system: OVCAR-8 ovarian
HOP-92 NSCLC = test system: HOP-92 NSCLC
MDA-N = test system: MDA-N
CCRF-CEM leukemia = test system: CCRF-CEM leukemia
OVCAR-5 ovarian = test system: OVCAR-5 ovarian
HCT-15 colon = test system: HCT-15 colon
ACHN renal = test system: ACHN renal
NCI/ADR-RES ovarian = test system: NCI/ADR-RES ovarian
UO-31 renal = test system: UO-31 renal
MALME-3M melanoma = test system: MALME-3M melanoma

Row | SMILES | TGI (IGROV1 ovarian) | TGI (MDA-MB-231 breast) | TGI (LOX IMVI melanoma) | TGI (EKVX NSCLC) | TGI (SK-MEL-2 melanoma) | TGI (HT29 colon) | TGI (NCI-H226 lung) | TGI (MOLT-4 leukemia) | TGI (M14 melanoma) | TGI (OVCAR-8 ovarian) | TGI (HOP-92 NSCLC) | TGI (MDA-N) | TGI (CCRF-CEM leukemia) | TGI (OVCAR-5 ovarian) | TGI (HCT-15 colon) | TGI (ACHN renal) | TGI (NCI/ADR-RES ovarian) | TGI (UO-31 renal) | TGI (MALME-3M melanoma)
1 | CC(=O)/C(N=Nc1ccc(-n2c(C)nc3ccc(Br)cc3c2=O)cc1)=C(/C)O | > 100 µM | > 100 µM | > 100 µM | > 100 µM | > 100 µM | > 100 µM | > 100 µM | > 100 µM | > 100 µM | > 100 µM | > 100 µM | > 100 µM | > 100 µM | > 100 µM | > 100 µM | > 100 µM | > 100 µM | > 100 µM | –
2 | c1cc2[nH]snc2c2cncc12 | > 100 µM | > 100 µM | > 100 µM | > 100 µM | > 100 µM | > 100 µM | > 100 µM | > 100 µM | – | > 100 µM | 85.7 µM | > 100 µM | > 100 µM | > 100 µM | > 100 µM | > 100 µM | > 100 µM | > 100 µM | > 100 µM
3 | CC(C)C(C/C=C1/CC(CO)(COC(=O)C(C)(C)C)OC1=O)C(C)C (stereo unspecified) | 31.5 µM | 17.1 µM | 28.4 µM | 23 µM | 29.9 µM | 32.3 µM | 22.7 µM | 35.6 µM | 24.4 µM | 36.4 µM | 25.3 µM | 19.6 µM | 36.5 µM | 24.3 µM | 34.6 µM | 21 µM | 36.6 µM | 17.3 µM | 19.2 µM
4 | COC(=O)C1=C([C@H]2COC(C)(C)O2)[C@H]2C[C@@H]1[C@@H]1OC(C)(C)O[C@@H]12 | > 100 µM | > 100 µM | > 100 µM | > 100 µM | > 100 µM | > 100 µM | > 100 µM | > 100 µM | > 100 µM | > 100 µM | > 100 µM | > 100 µM | > 100 µM | > 100 µM | > 100 µM | > 100 µM | > 100 µM | > 100 µM | > 100 µM
5 | CC(=O)Nc1ccc(-c2nc3ccccc3s2)cc1Cl | > 100 µM | > 100 µM | > 100 µM | > 100 µM | > 100 µM | > 100 µM | > 100 µM | > 100 µM | > 100 µM | > 100 µM | > 100 µM | > 100 µM | > 100 µM | > 100 µM | > 100 µM | > 100 µM | > 100 µM | > 100 µM | > 100 µM
6 | CC(C)Oc1c(C2(c3ccccc3O)SCCCS2)c(=O)c1=O | > 100 µM | > 100 µM | > 100 µM | > 100 µM | > 100 µM | > 100 µM | > 100 µM | > 100 µM | > 100 µM | > 100 µM | > 100 µM | > 100 µM | 61.6 µM | > 100 µM | > 100 µM | > 100 µM | > 100 µM | > 100 µM | –
7 | CCOC(=O)CCC(NC(=O)c1ccc(Nc2cnc3cc(C(F)(F)F)ccc3n2)cc1)C(=O)OCC (stereo unspecified) | > 100 µM | > 100 µM | > 100 µM | > 100 µM | > 100 µM | > 100 µM | > 100 µM | > 100 µM | > 100 µM | > 100 µM | 49.6 µM | > 100 µM | > 100 µM | > 100 µM | > 100 µM | > 100 µM | > 100 µM | > 100 µM | > 100 µM
8 | CCOC(=O)c1ccc(NC(=O)O/N=C(/Cl)C(C)C)cc1 | 43 µM | 39.7 µM | 9.65 µM | 31.3 µM | 29.3 µM | 48 µM | 50.2 µM | 4.63 µM | 14.6 µM | 27.9 µM | 3.7 µM | 32.4 µM | 2.55 µM | 32.9 µM | 24.9 µM | 27 µM | 37.5 µM | 31.9 µM | 8.49 µM
9 | COc1cc(OC)cc(-n2c(N)c(-c3nc4ccccc4s3)c3ccc([N+](=O)[O-])cc3c2=O)c1 | – | > 100 µM | > 100 µM | – | – | > 100 µM | > 100 µM | – | – | > 100 µM | 15.8 µM | > 100 µM | > 100 µM | – | > 100 µM | 41.7 µM | > 100 µM | > 100 µM | > 100 µM
10 | CC(C)(Cl)C(Br)CCC(CBr)=C(Cl)CCl (mixture of isomers) | 2.2 µM | 3.5 µM | 3.59 µM | > 10 µM | 4.41 µM | 3.77 µM | > 2.46 µM | 1.96 µM | 3.49 µM | 3.14 µM | 3.5 µM | 3.74 µM | 0.568 µM | > 8.21 µM | 5.15 µM | > 8.98 µM | 5.21 µM | 3.96 µM | 4.13 µM
11 | CN(C)/N=C1\C=C2CC[C@H](O[Si](C)(C)C(C)(C)C)[C@@]2(C)CC1 | 41 µM | 30.3 µM | 34.4 µM | 38.6 µM | 30.4 µM | 34.9 µM | 35 µM | 32.4 µM | 33 µM | 33.3 µM | 28.5 µM | 41.4 µM | 44 µM | 32.5 µM | 33 µM | 30.1 µM | 34.5 µM | 29.8 µM | 30.8 µM
12 | CC1=CSC(O)(c2ccc(Cl)cc2)c2noc(=O)n21 (stereo unspecified) | > 100 µM | > 100 µM | – | > 100 µM | > 100 µM | > 100 µM | > 100 µM | > 100 µM | > 100 µM | > 100 µM | > 100 µM | > 100 µM | – | > 100 µM | > 100 µM | > 100 µM | > 100 µM | > 100 µM | –
